IC50, CC50 and AC50 data for 2 molecules are collected here from ChEMBL document CHEMBL1201862, “PubChem BioAssay data set” (2004).

A short description of assay [1]: Counterscreen for AddAB inhibitors: absorbance-based bacterial cell-based high throughput dose response assay for inhibitors of bacterial viability. [Related pubchem assays (depositor defined):AID435030, AID449728, AID449731, AID488942, AID488955, AID488956]. The class given is functional. Background: A counterscreen serves to expose hits that act by an unwanted route or on another target.

In assay [2] the target is 26S proteasome non-ATPase regulatory subunit 14 (Homo sapiens, UniProt O00487). As to the kind of experiment: inhibition of proteasome subunit RPN11 – biochemical, fluorescence polarization, uHTS hits, confirmation (AID 602368). In kind it is functional. In general terms: Polarisation of emitted light reports the rotation of a fluorescent probe.
For assay [3], the target named is 72 kDa type IV collagenase (Homo sapiens, UniProt P08253). As to the kind of experiment: Dose Response validation of uHTS RPN11 inhibitor hits using a MMP-2 Fluorescence assay. In kind it is functional.
The nature of assay [4]: viability loss in HeLa cells – cytotoxicity control for MgcRacGAP inhibitor project, dose response (AID 624300). In kind it is functional.
The target in assay [5] is T1, Sentrin-specific protease 7 (Homo sapiens, UniProt Q9BQF6).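 Further: Luminescence-based dose-response confirmation of ultra-high-throughput screening hits, measuring inhibition of SENP7.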
T1 sequence (Q9BQF6 whole entry): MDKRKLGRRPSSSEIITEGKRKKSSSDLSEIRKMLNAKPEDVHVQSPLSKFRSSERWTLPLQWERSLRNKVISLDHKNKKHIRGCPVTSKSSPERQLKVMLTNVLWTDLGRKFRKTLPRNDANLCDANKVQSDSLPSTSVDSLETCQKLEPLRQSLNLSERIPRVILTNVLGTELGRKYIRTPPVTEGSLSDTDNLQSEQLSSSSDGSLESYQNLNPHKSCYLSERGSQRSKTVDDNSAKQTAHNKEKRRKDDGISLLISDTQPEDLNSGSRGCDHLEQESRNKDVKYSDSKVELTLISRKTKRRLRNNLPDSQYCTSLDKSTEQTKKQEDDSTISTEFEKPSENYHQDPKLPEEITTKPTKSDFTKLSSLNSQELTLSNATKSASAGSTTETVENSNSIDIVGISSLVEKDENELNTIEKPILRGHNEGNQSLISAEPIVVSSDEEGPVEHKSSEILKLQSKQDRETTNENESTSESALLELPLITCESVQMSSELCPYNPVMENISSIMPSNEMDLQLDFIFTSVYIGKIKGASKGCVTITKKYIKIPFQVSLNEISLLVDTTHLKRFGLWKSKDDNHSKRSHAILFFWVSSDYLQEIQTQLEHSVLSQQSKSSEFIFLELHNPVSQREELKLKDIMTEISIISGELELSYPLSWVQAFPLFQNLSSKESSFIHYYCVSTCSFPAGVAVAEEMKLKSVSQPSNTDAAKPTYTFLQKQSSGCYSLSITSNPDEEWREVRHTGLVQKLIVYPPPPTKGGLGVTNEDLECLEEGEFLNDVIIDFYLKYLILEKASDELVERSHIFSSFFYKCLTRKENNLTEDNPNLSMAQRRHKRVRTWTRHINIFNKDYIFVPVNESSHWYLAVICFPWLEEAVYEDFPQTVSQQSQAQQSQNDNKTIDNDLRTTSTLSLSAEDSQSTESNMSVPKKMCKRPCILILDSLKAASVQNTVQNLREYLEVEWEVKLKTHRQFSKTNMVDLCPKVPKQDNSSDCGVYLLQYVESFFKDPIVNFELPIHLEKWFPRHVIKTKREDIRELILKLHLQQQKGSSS
In kind it is functional.

Assay [6] has as its target Dual specificity tyrosine-phosphorylation-regulated kinase 1A (Rattus norvegicus, UniProt Q63470). In kind it is biochemical, Homo sapiens.
For assay [7], the target named is T2, Tyrosyl-DNA phosphodiesterase 2 (Homo sapiens, UniProt O95551).
T2 sequence (O95551 whole entry): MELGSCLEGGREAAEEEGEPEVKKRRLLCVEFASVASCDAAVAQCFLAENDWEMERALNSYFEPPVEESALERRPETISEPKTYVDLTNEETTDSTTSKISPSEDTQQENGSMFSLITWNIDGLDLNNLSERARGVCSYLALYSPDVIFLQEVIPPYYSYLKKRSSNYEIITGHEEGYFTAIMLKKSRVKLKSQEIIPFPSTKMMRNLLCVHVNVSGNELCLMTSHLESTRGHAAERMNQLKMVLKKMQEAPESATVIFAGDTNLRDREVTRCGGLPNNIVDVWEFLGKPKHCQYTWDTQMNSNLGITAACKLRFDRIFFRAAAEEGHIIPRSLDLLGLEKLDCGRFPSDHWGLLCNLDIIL
As to the kind of experiment: potency against TDP2 phosphodiesterase activity – biochemical, epi absorbance, IC50, dose response (AID 743297).

Structures are written as SMILES. The source made the active and inactive calls.

72 kDa type IV collagenase, sequence (P08253 whole entry): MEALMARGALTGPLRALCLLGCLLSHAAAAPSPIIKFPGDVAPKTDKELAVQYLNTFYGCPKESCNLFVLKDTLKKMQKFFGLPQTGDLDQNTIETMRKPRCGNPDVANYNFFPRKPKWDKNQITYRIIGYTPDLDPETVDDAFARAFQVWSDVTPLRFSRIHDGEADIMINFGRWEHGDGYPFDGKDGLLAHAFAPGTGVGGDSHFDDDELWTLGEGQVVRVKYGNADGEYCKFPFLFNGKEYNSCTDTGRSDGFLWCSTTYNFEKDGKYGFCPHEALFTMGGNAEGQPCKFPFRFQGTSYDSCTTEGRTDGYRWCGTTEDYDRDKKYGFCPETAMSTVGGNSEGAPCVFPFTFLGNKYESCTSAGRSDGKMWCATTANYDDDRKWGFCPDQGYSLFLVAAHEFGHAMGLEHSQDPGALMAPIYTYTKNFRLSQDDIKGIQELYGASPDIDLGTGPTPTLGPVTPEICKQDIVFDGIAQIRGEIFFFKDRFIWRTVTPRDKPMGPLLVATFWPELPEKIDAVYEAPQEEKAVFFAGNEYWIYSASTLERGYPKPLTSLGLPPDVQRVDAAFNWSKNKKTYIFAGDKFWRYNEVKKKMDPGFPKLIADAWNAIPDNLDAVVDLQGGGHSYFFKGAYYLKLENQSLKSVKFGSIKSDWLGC
26S proteasome non-ATPase regulatory subunit 14, sequence (O00487 whole entry): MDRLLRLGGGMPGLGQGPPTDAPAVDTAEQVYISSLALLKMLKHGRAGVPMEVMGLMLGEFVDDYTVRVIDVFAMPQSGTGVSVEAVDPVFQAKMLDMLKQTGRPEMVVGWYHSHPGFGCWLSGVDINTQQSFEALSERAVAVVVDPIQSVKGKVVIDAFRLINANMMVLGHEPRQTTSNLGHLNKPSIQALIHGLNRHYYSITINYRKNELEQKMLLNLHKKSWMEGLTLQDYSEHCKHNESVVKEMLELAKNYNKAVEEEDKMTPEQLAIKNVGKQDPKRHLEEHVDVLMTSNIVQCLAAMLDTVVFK

In the case of `O=[N+]([O-])c1ccc(N/N=C/c2ccc[nH]2)cc1`, the IC50 – broadly, the point on the concentration scale where inhibition reaches its midpoint – in assay [1] is > 119 µM (inactive); in assay [2] it was 8.96 µM (active); in assay [3] it was 70.3 µM (active). Besides, the CC50 (as a rule, the concentration giving 50% cytotoxicity) in assay [4] is 100 µM (active).
For `CC(=O)N(/N=C1\Sc2ccccc2C1=O)c1cccc(C)c1`, the values for the IC50 in assay [5] and in assay [7] were 13.8 µM (active) and 6.48 µM (active), respectively. Also, the half-maximal activity concentration (AC50) (as a rule, the midpoint of the concentration-response curve, whichever way the signal moves) in assay [6] was 28.1 µM (active).
